Measurements from patent publication US11701359B2, “Exon 18 and/or exon 21 mutant EGFR selective inhibitor” (priority 2017, dated 2023).
Where two headings read alike, the source gives them in different places.

Experiments:
[1] = target: T1, human EGFR G719A+T790M (Homo sapiens, UniProt P00533, G719A/T790M); assay: Intracellular EGFR phosphorylation in mutant EGFR forced expression system using HEK293 cells; format: cell-based; settings: HEK293 cells expressing human EGFR G719A+T790M, 6 hours; read-out: IC50, phosphorylated EGFR inhibition, G719A + T790M
T1 construct: expressed in transfected cells; host or cells: Jump-In Grip HEK293 cells (Thermo Fisher Scientific), pJTI R4 DEST CMV pA vector

[2] = system: Ba/F3-EGFR G719A+T790M cells; assay: Cell growth inhibitory effect, G719A+T790M mutant EGFR-expressing Ba/F3 cell line (CellTiter-Glo); format: cell-based, mouse; settings: for IC50: Mus musculus, 72 h, read-out: IC50 (nM) G719A + T790M
Protocol: (§1) These solutions were then added to each well of the culture plate of the cells, and incubated in a 5% CO2 gas-containing incubator at 37° C. for 3 days. The cell count after incubation was measured using a CellTiter-Glo (trademark) Luminescent Cell Viability Assay (Promega Corporation), in accordance with the manufacturer's recommended protocol.

[3] = target: T2, human EGFR E709A (Homo sapiens, UniProt P00533, E709A); assay: Intracellular EGFR phosphorylation in mutant EGFR forced expression system using HEK293 cells; format: cell-based; settings: HEK293 cells expressing human EGFR E709A, 6 hours; read-out: IC50, phosphorylated EGFR inhibition, E709A
T2 construct: expressed in transfected cells; host or cells: Jump-In Grip HEK293 cells (Thermo Fisher Scientific), pJTI R4 DEST CMV pA vector

[4] = in vivo; settings: mouse, in vivo; nude mice, oral once daily, 14 days, G719A+T790M model; read-out: Maximum tolerated dose (weight loss during dosing period less than 20%)
Protocol: (§2) The maximum tolerated dose was determined in accordance with the “Guidelines Involving Experimental Neoplasia Proposals in Mice and Rats” of the National Cancer Institute (NCI), from a humanitarian perspective.
(§3) To compare the changes in growth of tumor over time due to administration of the individual test compounds, the tumor volume (which may be hereinafter referred to as “TV”) was used as an index. […] For a toxicity index, the body weight was measured over time, and the body weight change (which may be hereinafter referred to as “BWC (%)”) from the day on which the mice were divided into groups was calculated in accordance with the following formula. […] BWC (%)=(the body weight measured on body weight measurement day)/(the body weight on the day mice were divided into groups)
(§4) A Dunnett's test was performed using the average TV on the final evaluation day as an index. […] T/C (%)=(the average TV of the group administered with a test compound)/(the average TV of the control group)×100

[5] = system: NIH3T3-EGFR G719A+T790M cells; assay: in vivo; settings: nude mice; for T/C (%): final evaluation day
Protocol: as §2, §3, §4

[6] = target: T3, human EGFR E709K (Homo sapiens, UniProt P00533, E709K); assay: Intracellular EGFR phosphorylation in mutant EGFR forced expression system using HEK293 cells; format: cell-based; settings: HEK293 cells expressing human EGFR E709K, 6 hours; read-out: IC50, phosphorylated EGFR inhibition, E709K
T3 construct: expressed in transfected cells; host or cells: Jump-In Grip HEK293 cells (Thermo Fisher Scientific), pJTI R4 DEST CMV pA vector
T3 sequence (P00533 25-1210 E709K): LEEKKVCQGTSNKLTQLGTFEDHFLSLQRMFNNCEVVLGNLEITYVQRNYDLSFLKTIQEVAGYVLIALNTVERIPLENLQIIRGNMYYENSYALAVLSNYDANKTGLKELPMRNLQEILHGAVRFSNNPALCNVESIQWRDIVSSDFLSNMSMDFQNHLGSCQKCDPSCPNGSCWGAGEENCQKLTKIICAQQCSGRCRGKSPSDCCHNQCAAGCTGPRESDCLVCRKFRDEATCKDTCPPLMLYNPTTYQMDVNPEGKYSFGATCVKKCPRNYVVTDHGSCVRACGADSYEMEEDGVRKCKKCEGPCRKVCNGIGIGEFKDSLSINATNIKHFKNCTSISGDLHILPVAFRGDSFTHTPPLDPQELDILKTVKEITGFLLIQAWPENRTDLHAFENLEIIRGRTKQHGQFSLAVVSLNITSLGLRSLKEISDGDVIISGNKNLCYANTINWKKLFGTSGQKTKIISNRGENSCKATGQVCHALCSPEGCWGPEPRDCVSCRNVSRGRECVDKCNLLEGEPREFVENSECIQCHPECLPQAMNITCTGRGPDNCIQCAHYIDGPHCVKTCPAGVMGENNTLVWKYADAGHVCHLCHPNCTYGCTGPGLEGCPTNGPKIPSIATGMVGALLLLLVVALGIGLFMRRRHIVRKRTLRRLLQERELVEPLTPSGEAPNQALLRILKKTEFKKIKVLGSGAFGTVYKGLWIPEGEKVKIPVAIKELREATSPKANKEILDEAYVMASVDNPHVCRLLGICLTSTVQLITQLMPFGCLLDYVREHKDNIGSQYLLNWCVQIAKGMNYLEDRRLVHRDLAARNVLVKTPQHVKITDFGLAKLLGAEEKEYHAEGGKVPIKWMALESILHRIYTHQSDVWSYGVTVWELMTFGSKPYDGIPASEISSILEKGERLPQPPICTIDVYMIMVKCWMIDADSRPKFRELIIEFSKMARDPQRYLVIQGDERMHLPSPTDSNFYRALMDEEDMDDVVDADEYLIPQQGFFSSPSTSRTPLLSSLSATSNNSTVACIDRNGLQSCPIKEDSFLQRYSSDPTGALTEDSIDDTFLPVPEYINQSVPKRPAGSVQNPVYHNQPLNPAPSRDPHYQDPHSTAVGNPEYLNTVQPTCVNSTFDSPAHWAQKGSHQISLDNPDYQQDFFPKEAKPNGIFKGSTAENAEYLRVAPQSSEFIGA

[7] = system: Ba/F3-EGFR L861Q cells; assay: Cell growth inhibitory effect, L861Q mutant EGFR-expressing Ba/F3 cell line (CellTiter-Glo); format: cell-based, mouse; settings: for IC50: Mus musculus, 72 h, read-out: IC50 (nM) L861Q
Protocol: (§5) Evaluation of Cell Growth Inhibitory Effect Against Wild-Type EGFR- and Mutant EGFR-Expressing Cell Line (In Vitro)
(§6) The inhibitory activity of compounds against wild-type EGFR and mutant EGFR was evaluated using Ba/F3 cells, which are mouse B-lymphocyte precursor cell line to which a human EGFR gene was introduced.
(§7) The solutions were then added to each well of the culture plate of the cells, and the cells were incubated in a 5% CO2 gas-containing incubator at 37° C. for 3 days. The cell count after incubation was measured by a CellTiter-Glo (trademark) Luminescent Cell Viability Assay (Promega Corporation) in accordance with the manufacturer's recommended protocol.

[8] = Antitumor effect on mouse model subcutaneously transplanted with G719A mutant EGFR-expressing cell line; settings: nude, mouse, in vivo, po
Protocol: as §2
(§8) To compare the changes in growth of tumor over time due to administration of the individual test compounds, the tumor volume (which may be hereinafter referred to as “TV”) was used as an index. For a toxicity index, the body weight was measured over time, and the body weight change (which may be hereinafter referred to as “BWC (%)”) from the day on which the mice were divided into groups was calculated in accordance with the following formula. BWC (%)=(the body weight measured on body weight measurement day)/(the body weight on the day mice were divided into groups)
(§9) T/C (%)=(the average TV of the group administered with a test compound)/(the average TV of the control group)×100

[9] = system: NIH3T3-EGFR G719A cells; assay: as above; settings: nude mice
Protocol: as §2, §8, §9

[10] = system: Ba/F3-EGFR L861Q+T790M cells; assay: Cell growth inhibitory effect, L861Q+T790M mutant EGFR-expressing Ba/F3 cell line (CellTiter-Glo); format: cell-based, mouse; settings: for IC50: Mus musculus, 72 h, read-out: IC50 (nM) L861Q + T790M
Protocol: as §1

[11] = target: T4, human EGFR G719S (Homo sapiens, UniProt P00533, G719S); assay: Intracellular EGFR phosphorylation in mutant EGFR forced expression system using HEK293 cells; format: cell-based; settings: HEK293 cells expressing human EGFR G719S, 6 hours; read-out: IC50, phosphorylated EGFR inhibition, G719S
T4 construct: expressed in transfected cells; host or cells: Jump-In Grip HEK293 cells (Thermo Fisher Scientific), pJTI R4 DEST CMV pA vector
T4 sequence (P00533 25-1210 G719S): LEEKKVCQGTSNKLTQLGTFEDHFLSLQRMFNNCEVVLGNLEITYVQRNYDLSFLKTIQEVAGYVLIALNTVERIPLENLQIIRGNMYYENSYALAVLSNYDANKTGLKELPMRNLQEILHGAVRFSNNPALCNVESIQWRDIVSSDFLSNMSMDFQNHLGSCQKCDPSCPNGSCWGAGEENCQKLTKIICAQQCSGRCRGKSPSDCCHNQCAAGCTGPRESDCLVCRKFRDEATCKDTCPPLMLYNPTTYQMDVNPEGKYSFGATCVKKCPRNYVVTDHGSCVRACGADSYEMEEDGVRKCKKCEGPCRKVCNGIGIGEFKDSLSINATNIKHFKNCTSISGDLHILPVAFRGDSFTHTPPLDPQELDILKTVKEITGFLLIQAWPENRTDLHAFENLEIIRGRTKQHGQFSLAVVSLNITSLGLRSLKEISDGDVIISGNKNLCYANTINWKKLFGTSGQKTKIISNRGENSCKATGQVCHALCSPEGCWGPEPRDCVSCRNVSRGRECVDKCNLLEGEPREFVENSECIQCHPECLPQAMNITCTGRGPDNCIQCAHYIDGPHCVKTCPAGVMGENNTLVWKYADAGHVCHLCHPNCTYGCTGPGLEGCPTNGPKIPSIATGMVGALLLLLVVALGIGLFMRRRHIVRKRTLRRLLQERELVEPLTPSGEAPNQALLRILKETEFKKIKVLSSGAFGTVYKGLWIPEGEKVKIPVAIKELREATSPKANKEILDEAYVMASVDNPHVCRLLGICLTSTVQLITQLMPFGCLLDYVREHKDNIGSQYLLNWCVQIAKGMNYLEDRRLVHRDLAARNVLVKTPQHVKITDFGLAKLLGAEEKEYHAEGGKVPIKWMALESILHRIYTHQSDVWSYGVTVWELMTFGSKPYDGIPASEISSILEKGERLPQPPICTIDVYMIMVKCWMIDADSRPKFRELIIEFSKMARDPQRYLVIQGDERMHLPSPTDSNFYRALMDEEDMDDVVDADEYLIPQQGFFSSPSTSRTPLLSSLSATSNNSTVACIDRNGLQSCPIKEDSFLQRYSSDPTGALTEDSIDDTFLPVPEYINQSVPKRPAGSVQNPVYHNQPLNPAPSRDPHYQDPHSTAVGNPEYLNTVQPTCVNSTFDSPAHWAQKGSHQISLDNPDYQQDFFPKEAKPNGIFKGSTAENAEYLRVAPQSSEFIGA

[12] = target: T5, human EGFR L861Q (Homo sapiens, UniProt P00533, L861Q); assay: as above; format: cell-based; settings: HEK293 cells expressing human EGFR L861Q, 6 hours; read-out: IC50, phosphorylated EGFR inhibition, L861Q
T5 construct: expressed in transfected cells; host or cells: Jump-In Grip HEK293 cells (Thermo Fisher Scientific), pJTI R4 DEST CMV pA vector

[13] = target: T6, human EGFR G719C (Homo sapiens, UniProt P00533, G719C); assay: as above; format: cell-based; settings: HEK293 cells expressing human EGFR G719C, 6 hours; read-out: IC50, phosphorylated EGFR inhibition, G719C
T6 construct: expressed in transfected cells; host or cells: Jump-In Grip HEK293 cells (Thermo Fisher Scientific), pJTI R4 DEST CMV pA vector
T6 sequence (P00533 25-1210 G719C): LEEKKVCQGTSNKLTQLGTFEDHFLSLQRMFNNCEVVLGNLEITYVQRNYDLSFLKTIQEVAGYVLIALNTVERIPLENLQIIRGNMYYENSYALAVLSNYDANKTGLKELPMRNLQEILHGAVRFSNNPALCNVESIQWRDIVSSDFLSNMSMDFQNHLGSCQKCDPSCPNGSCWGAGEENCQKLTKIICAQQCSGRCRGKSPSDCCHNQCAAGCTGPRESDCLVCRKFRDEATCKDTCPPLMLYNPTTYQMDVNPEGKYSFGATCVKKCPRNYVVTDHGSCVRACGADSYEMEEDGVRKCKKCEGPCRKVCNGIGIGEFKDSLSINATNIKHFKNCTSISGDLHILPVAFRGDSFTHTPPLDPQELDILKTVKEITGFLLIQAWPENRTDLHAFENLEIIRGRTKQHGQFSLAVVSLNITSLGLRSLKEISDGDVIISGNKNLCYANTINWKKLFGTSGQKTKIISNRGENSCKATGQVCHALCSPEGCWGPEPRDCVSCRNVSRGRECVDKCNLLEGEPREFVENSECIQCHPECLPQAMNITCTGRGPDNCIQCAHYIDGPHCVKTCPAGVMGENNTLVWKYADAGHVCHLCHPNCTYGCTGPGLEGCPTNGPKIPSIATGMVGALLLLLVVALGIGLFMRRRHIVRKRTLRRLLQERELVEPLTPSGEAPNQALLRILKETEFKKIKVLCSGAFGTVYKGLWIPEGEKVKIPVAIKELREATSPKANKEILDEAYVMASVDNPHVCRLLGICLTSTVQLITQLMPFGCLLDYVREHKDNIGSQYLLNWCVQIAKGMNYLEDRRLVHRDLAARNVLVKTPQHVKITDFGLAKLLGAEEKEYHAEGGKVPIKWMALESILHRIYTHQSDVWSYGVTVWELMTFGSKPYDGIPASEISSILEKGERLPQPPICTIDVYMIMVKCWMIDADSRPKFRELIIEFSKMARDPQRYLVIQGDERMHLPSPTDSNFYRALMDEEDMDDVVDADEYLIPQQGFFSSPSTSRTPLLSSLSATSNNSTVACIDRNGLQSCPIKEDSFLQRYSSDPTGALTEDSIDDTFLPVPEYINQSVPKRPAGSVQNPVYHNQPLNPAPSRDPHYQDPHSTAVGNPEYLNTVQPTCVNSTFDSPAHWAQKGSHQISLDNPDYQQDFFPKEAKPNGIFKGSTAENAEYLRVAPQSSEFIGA

[14] = target: T7, human EGFR L861Q+T790M (Homo sapiens, UniProt P00533, L861Q/T790M); assay: as above; format: cell-based; settings: HEK293 cells expressing human EGFR L861Q+T790M, 6 hours; read-out: IC50, phosphorylated EGFR inhibition, L861Q + T790M
T7 construct: expressed in transfected cells; host or cells: Jump-In Grip HEK293 cells (Thermo Fisher Scientific), pJTI R4 DEST CMV pA vector

[15] = target: T8, human EGFR G719A (Homo sapiens, UniProt P00533, G719A); assay: as above; format: cell-based; settings: HEK293 cells expressing human EGFR G719A, 6 hours; read-out: IC50, phosphorylated EGFR inhibition, G719A
T8 construct: expressed in transfected cells; host or cells: Jump-In Grip HEK293 cells (Thermo Fisher Scientific), pJTI R4 DEST CMV pA vector
T8 sequence (P00533 25-1210 G719A): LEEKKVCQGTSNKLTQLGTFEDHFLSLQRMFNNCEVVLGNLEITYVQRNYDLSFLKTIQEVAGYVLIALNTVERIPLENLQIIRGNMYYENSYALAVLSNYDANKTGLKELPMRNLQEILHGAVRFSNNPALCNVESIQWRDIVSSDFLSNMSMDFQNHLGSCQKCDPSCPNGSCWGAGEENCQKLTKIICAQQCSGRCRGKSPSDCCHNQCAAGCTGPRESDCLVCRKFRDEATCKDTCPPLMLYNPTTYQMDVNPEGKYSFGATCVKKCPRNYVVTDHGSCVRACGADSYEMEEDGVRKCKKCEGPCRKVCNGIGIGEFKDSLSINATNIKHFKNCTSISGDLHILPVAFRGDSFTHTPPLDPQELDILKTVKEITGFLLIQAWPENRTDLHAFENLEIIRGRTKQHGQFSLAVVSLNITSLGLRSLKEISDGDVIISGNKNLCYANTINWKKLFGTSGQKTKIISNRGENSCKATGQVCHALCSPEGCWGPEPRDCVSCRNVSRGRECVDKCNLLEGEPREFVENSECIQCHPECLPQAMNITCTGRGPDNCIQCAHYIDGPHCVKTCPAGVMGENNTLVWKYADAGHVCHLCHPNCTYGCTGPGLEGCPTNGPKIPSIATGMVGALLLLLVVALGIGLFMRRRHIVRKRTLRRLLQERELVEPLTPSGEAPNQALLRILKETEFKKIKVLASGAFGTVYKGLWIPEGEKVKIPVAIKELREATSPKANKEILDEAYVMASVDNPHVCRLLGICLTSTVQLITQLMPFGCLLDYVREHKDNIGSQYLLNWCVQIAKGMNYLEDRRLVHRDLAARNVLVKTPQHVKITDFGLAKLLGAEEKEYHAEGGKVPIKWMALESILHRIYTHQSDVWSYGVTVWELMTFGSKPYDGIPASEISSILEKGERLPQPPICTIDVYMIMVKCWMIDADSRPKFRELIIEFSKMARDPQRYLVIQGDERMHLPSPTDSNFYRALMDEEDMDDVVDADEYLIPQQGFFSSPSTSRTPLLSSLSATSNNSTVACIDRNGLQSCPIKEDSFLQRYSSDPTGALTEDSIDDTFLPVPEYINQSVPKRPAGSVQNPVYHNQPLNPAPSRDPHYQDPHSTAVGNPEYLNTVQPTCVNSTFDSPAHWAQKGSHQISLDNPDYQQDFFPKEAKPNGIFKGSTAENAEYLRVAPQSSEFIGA

[16] = system: Ba/F3-EGFR_WT cells; assay: Cell growth inhibitory effect, wild-type EGFR-expressing Ba/F3 cell line (CellTiter-Glo); format: cell-based; settings: Mus musculus, BaF3, 72 h, read-out: IC50 (nM) WT
Protocol: as §5, §6, §7

[17] = system: Ba/F3-EGFR G719A cells; assay: Cell growth inhibitory effect, G719A mutant EGFR-expressing Ba/F3 cell line (CellTiter-Glo); format: cell-based, mouse; settings: for IC50: Mus musculus, 72 h, read-out: IC50 (nM) G719A
Protocol: as §5, §6, §7

Q: What does the source list for `C=CC(=O)N[C@H]1C=C(C)c2c(-c3cnc4ccccc4c3)c3c(N)ncnc3n2C1` [Compound A, (S)-N-(4-amino-6-methyl-5-(quinolin-3-yl)-8,9-dihydropyrimido[5,4-b]indolizin-8-yl)acrylamide]?
A: IC50 [1]: 31300 nM; IC50 Ratio WT/G719A + T790M ([2]; IC50 (WT)/IC50 (G719A+T790M), Ba/F3 cells): 37.9; IC50 ([2]; Ba/F3 cells with human EGFR G719A+T790M, no EGF, 3 days): 15.8 nM; IC50 [3]: 103000 nM; MTD at 14 days [4]: 200 mg/kg/day; T/C (%) ([5]; 50 mg/kg, oral once daily): 47.7%; T/C (%) ([5]; 100 mg/kg, oral once daily): 36.4%; T/C (%) ([5]; 200 mg/kg, oral once daily): 28.0%; Symptoms (weight loss, abnormal feces, abnormal skin) ([5]; NIH3T3-EGFR G719A+T790M model, oral once daily, FIG. 4): without symptoms such as serious weight loss; Antitumor effect (tumor volume) ([5]; NIH3T3-EGFR G719A+T790M subcutaneous, oral once daily, 50, 100, 200 mg/kg/day, FIG. 3): significant antitumor effect; IC50 [6]: 86000 nM; IC50 Ratio WT/L861Q ([7]; IC50 (WT)/IC50 (L861Q), Ba/F3 cells): 31.4; IC50 ([7]; Ba/F3 cells with human EGFR L861Q, no EGF, 3 days): 19 nM; MTD at 14 days [8]: 200 mg/kg/day; Symptoms (weight loss, abnormal feces, abnormal skin) ([9]; NIH3T3-EGFR G719A model, oral once daily 14 days, FIG. 2): did not show symptoms; Antitumor effect (tumor volume) ([9]; NIH3T3-EGFR G719A subcutaneous, oral once daily 14 days, 50, 100, 200 mg/kg/day, FIG. 1): remarkable antitumor effect; IC50 Ratio WT/L861Q + T790M ([10]; IC50 (WT)/IC50 (L861Q+T790M), Ba/F3 cells): 15.9; IC50 ([10]; Ba/F3 cells with human EGFR L861Q+T790M, no EGF, 3 days): 37.5 nM; IC50 [11]: 22700 nM; IC50 [12]: 40500 nM; IC50 [13]: 9300 nM; IC50 [14]: 81800 nM; IC50 [15]: 20500 nM; IC50 ([16]; Ba/F3 cells with human wild-type EGFR, 50 ng/mL EGF, 3 days): 597 nM; IC50 Ratio WT/G719A ([17]; IC50 (WT)/IC50 (G719A), Ba/F3 cells): 66.4; IC50 ([17]; Ba/F3 cells with human EGFR G719A, no EGF, 3 days): 9 nM

Q: Which IC50 ([2]; Ba/F3 EGFR) does the source give for `C=CC(=O)Nc1cc(Nc2nccc(-c3cn(C)c4ccccc34)n2)c(OC)cc1N(C)CCN(C)C` [Osimertinib, osimertinib, reference compound] here?
A: 89.4 nM

Q: What about the IC50 ([7]; Ba/F3 EGFR) of the same compound?
A: 47 nM

Q: What about the IC50 ([10]; Ba/F3 EGFR) of the same compound?
A: 36.4 nM

Q: And the IC50 [16]?
A: 379 nM

Q: What about the IC50 ([17]; Ba/F3 EGFR) of the same compound?
A: 209 nM
